Where no end group is shown, it is not given here.
Experiments:
[1] = system: HCMV strain AD169; experiment: HCMV plaque formation assay in MRC-5 cells; settings: for inhibition of HCMV plaque formation as compared to the virus control: 10 micrograms per ml, 7-10 days
[2] = system: HUVEC; experiment: Endothelial tube formation assay; format: cell-based, human; settings: 10 micrograms per ml, 20 hours, average tubule length
Excerpt: Positive control was vehicle only.

[3] = system: LPS-induced TNF-alpha production in human macrophages; experiment: TNF alpha production assay; format: cell-based; settings: 10 micrograms per ml; 30 min preincubation; lipopolysaccharide 200 ng/ml; overnight; ELISA
Excerpt: Not stimulated macrophages served as negative background control.

[4] = system: spleen cells; experiment: Th1/Th2 cytokine profiling assay; format: cell-based, Balb/c mice; settings: 10 micrograms per ml; Ovalbumin restimulation; 72 hours; supernatant
Excerpt: The Balb/c mice (originated in 1923, it is a popular strain and is used in many different research disciplines. Also classified as an inbred from the production of 20 or more successive brother-sister matings, the Balb/c mouse is albino and small in size) were immunized on Days 1, 15, and 29 with Ovalbumin (Ovalbumin is the main protein found in egg white, commonly used to stimulate an immunological reaction in test animals) in PBS (5 micrograms/injection). On day 50, spleens of the mice were harvested (3 weeks after last boost with Ovalbumin). Cells were cultured (2×10^5/well in triplicate) and incubated with culture medium or test peptides—10 micrograms per ml—for 30 min. Thereafter, additional Ovalbumin was added to the cells at 10 micrograms/ml for in vitro restimulation of the cells. 72 hours later, cell supernatants were harvested and assayed using the Becton Dickinson Mouse Th1/Th2 Cytokine CBA Kit. This kit can be used to measure Interleukin-2 (IL-2), Interleukin-4 (IL-4), Interleukin-5 (IL-5), Interferon-γ (IFN-γ), and Tumor Necrosis Factor-α (TNF-α) protein levels in a single sample. The kit performance has been optimized for analysis of physiologically relevant concentrations (pg/ml levels) of specific cytokine proteins in tissue culture supernatants and serum samples.

[5] = system: RAW 264.7 cells; experiment: Phagocytosis assay; format: cell-based, mouse; settings: 10 micrograms per ml, Fluorescein-labeled Escherichia coli, flow cytometry
[6] = system: hepatitis B virus (HBV) ayw strain in HepG2-2.2.15 cells; experiment: HBV experimental assay system (secreted HBV DNA, TaqMan PCR); format: cell-based; settings: 10 micrograms per ml, six days, HBV DNA by TaqMan PCR
Excerpt: HepG2-2.2.15 is a stable cell line containing the hepatitis B virus (HBV) ayw strain genome (ATCC Cat. No. CRL-11997). Antiviral compounds blocking any late step of viral replication such as transcription, translation, pregenome encapsidation, reverse transcription, particle assembly and release can be identified and characterized using this cell line. In this assay, an active compound will reduce the production of secreted HBV from cells, measured by utilizing real time quantitative PCR (TaqMan) assay to directly and accurately measure HBV DNA copies.
HepG2-2.2.15 cells were plated in 96-well microtiter plates. After 16-24 hours the confluent monolayer of HepG2-2.2.15 cells was washed and the medium was replaced with complete medium containing test peptides—10 micrograms per ml—in duplicate. […] Six days following the initial administration of the peptides, the cell culture supernatants was collected, treated with pronase and DNAse and then used in a real-time quantitative TaqMan PCR assay. The PCR-amplified HBV DNA was detected in real-time by monitoring increases in fluorescence signals that result from the exonucleolytic degradation of a quenched fluorescence probe molecule that hybridizes to the amplified HBV DNA. […] Antiviral activity was calculated from the reduction in HBV DNA levels (% virus control). […]

[7] = system: Primary Human endothelial cells (HUVEC); experiment: Endothelial cell migration assay; format: cell-based; settings: 10 micrograms per ml, 22 hours
Protocol: Thereafter, designated concentration of testing peptides—10 micrograms per ml—was added in duplicate wells.

Compound | inhibition of HCMV plaque formation as compared to the virus control [1] | inhibition of the tube formation of endothelial cells [2] | inhibition of the LPS-induced TNF-alpha production in human macrophages [3] | IFNγ spleen cells; TH1 response (% of control) [4] | IL-2 spleen cells (% of control) [4] | IL-4 spleen cells; TH2 response (% of control) [4] | IL-5 spleen cells; TH2 response (% of control) [4] | TNF-a spleen cells; TH1 response (% of control) [4] | effect on the phagocytic activity of murine macrophages (increase) [5] | inhibition of HBV replication as compared to the virus control infection [6] | antiviral activity of positive control compound (HCMV) ([1]; positive control) | inhibition of the migration of human endothelial cells [7]
Tyr-Pro-Ile-Ser-Leu-OH (YPISL-OH) [peptide 2] | did not inhibit | 100% | did not induced or inhibit | 53.9 % of control | 124.0 % of control | 94.1 % of control | 86.6 % of control | 126.2 % of control | no inhibitory or activating effect | 41.4% |  | 
Nc1nc(O)c2ncn(COC(CO)CO)c2n1 [Ganciclovir, reference compound] |  |  |  |  |  |  |  |  |  |  | expected levels of antiviral activity | 
AVPYPQR [peptide 1] | did not inhibit | 18% | 22.4% | 52.4 % of control | 55.7 % of control | 0.0 % of control | 53.0 % of control | 86.6 % of control | 22.9% | no effect |  | 35%

From patent US20100204152A1, “USE OF GLUTEN EXORPHIN C : AS A THERAPEUTIC AGENT” (priority 2007, published 2010)
